{
  "source": "ChEMBL document CHEMBL4507269",
  "about": "“Data for DCP probe BAY-386” (2021)",
  "key": {"[1]": {"target": "T1, Proteinase-activated receptor 1 (Homo sapiens, UniProt P25116)", "T1 sequence (P25116 whole entry)": "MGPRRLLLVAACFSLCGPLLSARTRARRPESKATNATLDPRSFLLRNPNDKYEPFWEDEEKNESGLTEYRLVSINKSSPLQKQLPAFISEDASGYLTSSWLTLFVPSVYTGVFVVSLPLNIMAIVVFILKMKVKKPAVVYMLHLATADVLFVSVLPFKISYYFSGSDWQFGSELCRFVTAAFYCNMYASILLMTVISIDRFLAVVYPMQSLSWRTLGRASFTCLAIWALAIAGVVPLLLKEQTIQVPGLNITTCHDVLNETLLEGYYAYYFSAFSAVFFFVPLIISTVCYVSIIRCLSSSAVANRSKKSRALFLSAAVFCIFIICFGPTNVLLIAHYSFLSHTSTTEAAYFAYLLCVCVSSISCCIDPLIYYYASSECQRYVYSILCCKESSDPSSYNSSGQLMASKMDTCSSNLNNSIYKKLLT", "assay": "Functional cellular assay (HEK cells) (F2R)"}, "[2]": {"target": "Beta-2 adrenergic receptor (Homo sapiens) (UniProt P07550)", "sequence (P07550 whole entry, looked up)": "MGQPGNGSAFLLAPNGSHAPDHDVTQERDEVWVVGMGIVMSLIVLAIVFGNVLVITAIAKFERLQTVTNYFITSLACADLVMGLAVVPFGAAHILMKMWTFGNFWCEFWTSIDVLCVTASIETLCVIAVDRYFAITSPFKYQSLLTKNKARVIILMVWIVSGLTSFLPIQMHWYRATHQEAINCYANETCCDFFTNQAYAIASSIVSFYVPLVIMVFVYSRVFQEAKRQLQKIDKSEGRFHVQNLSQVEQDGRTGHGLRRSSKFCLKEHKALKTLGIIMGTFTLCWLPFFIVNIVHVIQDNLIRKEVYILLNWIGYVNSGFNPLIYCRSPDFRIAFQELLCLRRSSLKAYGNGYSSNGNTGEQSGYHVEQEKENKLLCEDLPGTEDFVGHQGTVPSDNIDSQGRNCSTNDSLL", "assay": "beta2 (h) Eurofins-Cerep Cellular and Nuclear Receptor Functional Assays", "details": "Compound concentration 10.0 uM"}, "[3]": {"target": "Melanocortin receptor 4 (Homo sapiens) (UniProt P32245)", "sequence (P32245 whole entry)": "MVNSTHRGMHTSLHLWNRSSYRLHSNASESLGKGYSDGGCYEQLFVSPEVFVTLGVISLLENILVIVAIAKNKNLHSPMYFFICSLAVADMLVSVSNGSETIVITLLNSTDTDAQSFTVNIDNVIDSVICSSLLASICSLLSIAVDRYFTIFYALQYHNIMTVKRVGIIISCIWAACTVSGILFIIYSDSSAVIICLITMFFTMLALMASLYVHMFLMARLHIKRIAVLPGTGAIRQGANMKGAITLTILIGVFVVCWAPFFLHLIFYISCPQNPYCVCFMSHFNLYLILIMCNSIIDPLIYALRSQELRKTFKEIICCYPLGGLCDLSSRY", "assay": "MC4 (h) Eurofins-Cerep Cellular and Nuclear Receptor Functional Assays", "details": "Compound concentration 10.0 uM"}, "[4]": {"target": "Atypical kinase COQ8A, mitochondrial (Homo sapiens) (UniProt Q8NI60)", "details": "Compound concentration 1000.0 nM"}, "[5]": {"target": "Cyclin-dependent kinase 13 (Homo sapiens) (UniProt Q14004)", "details": "Compound concentration 1000.0 nM"}, "[6]": {"target": "Dual specificity protein kinase CLK2 (Homo sapiens) (UniProt P49760)", "details": "Compound concentration 1000.0 nM"}, "[7]": {"target": "Dual specificity protein kinase CLK3 (Homo sapiens) (UniProt P49761)", "sequence (P49761 whole entry, looked up)": "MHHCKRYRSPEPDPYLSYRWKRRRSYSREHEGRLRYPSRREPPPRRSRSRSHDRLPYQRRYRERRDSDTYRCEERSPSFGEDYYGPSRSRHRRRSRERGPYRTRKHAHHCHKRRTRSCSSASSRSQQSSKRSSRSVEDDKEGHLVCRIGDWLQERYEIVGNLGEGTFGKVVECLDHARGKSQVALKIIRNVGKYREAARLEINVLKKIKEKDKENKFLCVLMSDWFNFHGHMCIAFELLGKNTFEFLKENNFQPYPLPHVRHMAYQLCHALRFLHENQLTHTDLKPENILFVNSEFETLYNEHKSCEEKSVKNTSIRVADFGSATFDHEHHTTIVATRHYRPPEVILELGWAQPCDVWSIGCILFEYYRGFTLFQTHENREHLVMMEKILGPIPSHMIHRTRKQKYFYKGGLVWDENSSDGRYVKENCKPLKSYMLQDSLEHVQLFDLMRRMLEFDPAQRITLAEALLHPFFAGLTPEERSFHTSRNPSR", "details": "Compound concentration 1000.0 nM"}, "[8]": {"target": "Tyrosine-protein kinase CSK (Homo sapiens) (UniProt P41240)", "sequence (P41240 2-450 limits assumed)": "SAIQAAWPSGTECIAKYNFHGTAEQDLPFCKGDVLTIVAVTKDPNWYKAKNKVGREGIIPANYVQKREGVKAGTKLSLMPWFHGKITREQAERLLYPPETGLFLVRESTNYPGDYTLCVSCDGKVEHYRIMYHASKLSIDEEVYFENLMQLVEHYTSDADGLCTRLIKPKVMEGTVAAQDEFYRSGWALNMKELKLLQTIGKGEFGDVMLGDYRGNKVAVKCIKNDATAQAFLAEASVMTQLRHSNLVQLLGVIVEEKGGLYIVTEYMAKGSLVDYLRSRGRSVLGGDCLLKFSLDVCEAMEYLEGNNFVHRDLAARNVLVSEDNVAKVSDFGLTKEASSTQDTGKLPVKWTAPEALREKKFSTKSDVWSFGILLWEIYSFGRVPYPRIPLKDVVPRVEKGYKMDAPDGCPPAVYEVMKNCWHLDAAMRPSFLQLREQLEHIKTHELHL", "details": "Compound concentration 1000.0 nM"}, "[9]": {"target": "Casein kinase II subunit alpha (Homo sapiens) (UniProt P68400)", "details": "Compound concentration 1000.0 nM"}, "[10]": {"tested_on": "Epidermal growth factor receptor (Homo sapiens), P00533 [UNDEFINED MUTATION]", "details": "Compound concentration 1000.0 nM"}, "[11]": {"target": "Ephrin type-A receptor 7 (Homo sapiens) (UniProt Q15375)", "sequence (Q15375 28-998 limits assumed)": "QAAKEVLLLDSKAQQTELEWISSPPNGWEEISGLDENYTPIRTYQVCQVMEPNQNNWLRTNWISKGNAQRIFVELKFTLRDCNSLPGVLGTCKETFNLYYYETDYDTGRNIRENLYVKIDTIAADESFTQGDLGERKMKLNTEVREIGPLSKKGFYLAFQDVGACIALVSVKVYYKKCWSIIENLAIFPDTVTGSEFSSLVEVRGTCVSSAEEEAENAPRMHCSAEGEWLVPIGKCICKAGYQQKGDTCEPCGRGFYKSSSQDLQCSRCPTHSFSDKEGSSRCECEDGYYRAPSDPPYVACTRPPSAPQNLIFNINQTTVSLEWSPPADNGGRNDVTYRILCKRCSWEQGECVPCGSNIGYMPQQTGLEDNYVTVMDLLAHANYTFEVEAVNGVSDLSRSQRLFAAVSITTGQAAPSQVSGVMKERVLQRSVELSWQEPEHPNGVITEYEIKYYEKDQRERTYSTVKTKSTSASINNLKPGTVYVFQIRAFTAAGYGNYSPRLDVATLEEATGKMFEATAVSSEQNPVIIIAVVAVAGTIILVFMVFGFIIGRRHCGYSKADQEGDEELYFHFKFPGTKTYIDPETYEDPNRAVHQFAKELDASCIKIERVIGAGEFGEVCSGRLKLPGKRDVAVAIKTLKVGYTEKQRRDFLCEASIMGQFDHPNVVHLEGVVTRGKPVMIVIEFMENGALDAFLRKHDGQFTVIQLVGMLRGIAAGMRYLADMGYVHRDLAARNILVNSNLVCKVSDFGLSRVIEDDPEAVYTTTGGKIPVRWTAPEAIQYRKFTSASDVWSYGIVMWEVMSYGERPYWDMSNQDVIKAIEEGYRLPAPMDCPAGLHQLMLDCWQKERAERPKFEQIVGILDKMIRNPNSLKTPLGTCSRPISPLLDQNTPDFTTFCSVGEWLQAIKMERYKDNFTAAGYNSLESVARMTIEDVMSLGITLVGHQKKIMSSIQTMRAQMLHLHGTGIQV", "details": "Compound concentration 1000.0 nM"}, "[12]": {"target": "Ephrin type-B receptor 3 (Homo sapiens) (UniProt P54753)", "details": "Compound concentration 1000.0 nM"}, "[13]": {"target": "Fibroblast growth factor receptor 2 (Homo sapiens) (UniProt P21802)", "details": "Compound concentration 1000.0 nM"}, "[14]": {"target": "Glycogen synthase kinase-3 alpha (Homo sapiens) (UniProt P49840)", "sequence (P49840 2-483 limits assumed)": "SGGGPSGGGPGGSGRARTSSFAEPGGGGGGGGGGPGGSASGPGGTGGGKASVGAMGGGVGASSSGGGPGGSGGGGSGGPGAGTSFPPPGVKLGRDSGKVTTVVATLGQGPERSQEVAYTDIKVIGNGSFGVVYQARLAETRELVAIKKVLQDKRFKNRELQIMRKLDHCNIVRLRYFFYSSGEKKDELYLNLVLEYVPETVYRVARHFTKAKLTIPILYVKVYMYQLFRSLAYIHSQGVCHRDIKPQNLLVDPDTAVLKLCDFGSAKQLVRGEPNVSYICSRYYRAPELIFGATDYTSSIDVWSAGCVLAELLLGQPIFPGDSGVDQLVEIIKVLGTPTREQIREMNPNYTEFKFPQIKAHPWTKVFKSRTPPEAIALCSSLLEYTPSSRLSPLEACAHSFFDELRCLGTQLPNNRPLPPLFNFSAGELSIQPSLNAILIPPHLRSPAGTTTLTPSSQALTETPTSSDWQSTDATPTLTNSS", "details": "Compound concentration 1000.0 nM"}, "[15]": {"tested_on": "Mast/stem cell growth factor receptor Kit (Homo sapiens), P10721 [D816V]", "details": "Compound concentration 1000.0 nM"}, "[16]": {"target": "Myosin light chain kinase, smooth muscle (Homo sapiens) (UniProt Q15746)", "sequence (Q15746 whole entry)": "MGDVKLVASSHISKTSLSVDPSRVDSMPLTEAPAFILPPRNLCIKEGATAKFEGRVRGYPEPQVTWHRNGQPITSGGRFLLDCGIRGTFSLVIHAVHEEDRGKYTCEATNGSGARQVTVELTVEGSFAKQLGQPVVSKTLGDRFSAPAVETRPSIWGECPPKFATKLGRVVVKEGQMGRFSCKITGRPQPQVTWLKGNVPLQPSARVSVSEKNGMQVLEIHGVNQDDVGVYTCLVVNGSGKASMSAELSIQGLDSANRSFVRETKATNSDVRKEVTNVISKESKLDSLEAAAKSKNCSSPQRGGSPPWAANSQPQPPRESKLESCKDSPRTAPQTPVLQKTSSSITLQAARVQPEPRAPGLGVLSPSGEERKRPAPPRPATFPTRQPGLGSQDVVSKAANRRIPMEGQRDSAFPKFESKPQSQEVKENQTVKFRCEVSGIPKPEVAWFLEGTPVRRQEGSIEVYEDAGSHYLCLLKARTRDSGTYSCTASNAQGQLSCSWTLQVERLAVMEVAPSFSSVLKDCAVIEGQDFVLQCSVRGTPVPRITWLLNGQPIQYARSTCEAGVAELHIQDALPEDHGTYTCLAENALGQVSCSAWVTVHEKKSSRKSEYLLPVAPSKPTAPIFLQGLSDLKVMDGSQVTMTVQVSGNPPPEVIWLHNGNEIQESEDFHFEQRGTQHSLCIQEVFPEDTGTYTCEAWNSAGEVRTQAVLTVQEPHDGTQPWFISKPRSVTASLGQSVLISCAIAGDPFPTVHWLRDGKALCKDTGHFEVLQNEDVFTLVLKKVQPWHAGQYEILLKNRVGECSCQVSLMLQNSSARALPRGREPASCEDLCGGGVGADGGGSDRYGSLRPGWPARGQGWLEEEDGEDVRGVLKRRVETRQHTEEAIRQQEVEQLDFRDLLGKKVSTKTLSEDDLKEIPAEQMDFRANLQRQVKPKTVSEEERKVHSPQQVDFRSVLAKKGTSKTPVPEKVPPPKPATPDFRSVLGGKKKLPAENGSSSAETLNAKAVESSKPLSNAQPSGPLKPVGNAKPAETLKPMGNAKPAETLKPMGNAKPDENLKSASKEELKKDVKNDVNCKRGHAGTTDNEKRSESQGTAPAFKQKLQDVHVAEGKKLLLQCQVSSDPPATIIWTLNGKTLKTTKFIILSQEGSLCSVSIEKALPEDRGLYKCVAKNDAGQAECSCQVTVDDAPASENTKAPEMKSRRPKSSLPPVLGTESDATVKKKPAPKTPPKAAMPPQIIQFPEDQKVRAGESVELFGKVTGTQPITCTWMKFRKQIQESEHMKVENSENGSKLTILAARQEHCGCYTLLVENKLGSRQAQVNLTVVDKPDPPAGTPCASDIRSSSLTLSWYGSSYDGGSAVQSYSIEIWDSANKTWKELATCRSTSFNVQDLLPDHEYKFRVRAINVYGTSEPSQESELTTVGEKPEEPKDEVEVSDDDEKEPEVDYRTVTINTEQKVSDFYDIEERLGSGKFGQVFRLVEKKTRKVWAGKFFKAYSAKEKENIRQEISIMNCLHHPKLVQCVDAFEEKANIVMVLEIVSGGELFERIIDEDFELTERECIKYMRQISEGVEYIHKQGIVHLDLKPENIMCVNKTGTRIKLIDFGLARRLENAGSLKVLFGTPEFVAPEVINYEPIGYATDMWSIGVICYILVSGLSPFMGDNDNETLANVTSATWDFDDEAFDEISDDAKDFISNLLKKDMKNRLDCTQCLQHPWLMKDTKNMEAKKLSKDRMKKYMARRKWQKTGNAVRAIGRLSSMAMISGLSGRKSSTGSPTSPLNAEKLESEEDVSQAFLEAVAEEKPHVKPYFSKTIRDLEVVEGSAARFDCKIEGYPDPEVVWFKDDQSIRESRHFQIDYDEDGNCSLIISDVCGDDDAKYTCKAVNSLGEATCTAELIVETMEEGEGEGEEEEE", "details": "Compound concentration 1000.0 nM"}, "[17]": {"target": "Serine/threonine-protein kinase Nek1 (Homo sapiens) (UniProt Q96PY6)", "details": "Compound concentration 1000.0 nM"}, "[18]": {"target": "Cyclin-dependent kinase 18 (Homo sapiens) (UniProt Q07002)", "details": "Compound concentration 1000.0 nM"}, "[19]": {"tested_on": "Phosphatidylinositol 4,5-bisphosphate 3-kinase catalytic subunit alpha isoform (Homo sapiens), P42336 [H1047L]", "details": "Compound concentration 1000.0 nM"}, "[20]": {"target": "cAMP-dependent protein kinase catalytic subunit beta (Homo sapiens) (UniProt P22694)", "details": "Compound concentration 1000.0 nM"}, "[21]": {"target": "Serine/threonine-protein kinase SIK3 (Homo sapiens) (UniProt Q9Y2K2)", "details": "Compound concentration 1000.0 nM"}, "[22]": {"target": "Receptor-interacting serine/threonine-protein kinase 1 (Homo sapiens) (UniProt Q13546)", "details": "Compound concentration 1000.0 nM"}, "[23]": {"target": "Ribosomal protein S6 kinase alpha-5 (Homo sapiens) (UniProt O75582)", "details": "Compound concentration 1000.0 nM"}, "[24]": {"target": "Ribosomal protein S6 kinase alpha-1 (Homo sapiens) (UniProt Q15418)", "details": "Compound concentration 1000.0 nM"}, "[25]": {"target": "Serine/threonine-protein kinase Sgk1 (Homo sapiens) (UniProt O00141)", "details": "Compound concentration 1000.0 nM"}, "[26]": {"target": "SRSF protein kinase 2 (Homo sapiens) (UniProt P78362)", "details": "Compound concentration 1000.0 nM"}, "[27]": {"target": "D(1A) dopamine receptor (Homo sapiens) (UniProt P21728)", "details": "Compound concentration 10.0 uM"}, "[28]": {"target": "T2, D(4) dopamine receptor (Homo sapiens) (UniProt P21917)", "T2 sequence (whole entry)": "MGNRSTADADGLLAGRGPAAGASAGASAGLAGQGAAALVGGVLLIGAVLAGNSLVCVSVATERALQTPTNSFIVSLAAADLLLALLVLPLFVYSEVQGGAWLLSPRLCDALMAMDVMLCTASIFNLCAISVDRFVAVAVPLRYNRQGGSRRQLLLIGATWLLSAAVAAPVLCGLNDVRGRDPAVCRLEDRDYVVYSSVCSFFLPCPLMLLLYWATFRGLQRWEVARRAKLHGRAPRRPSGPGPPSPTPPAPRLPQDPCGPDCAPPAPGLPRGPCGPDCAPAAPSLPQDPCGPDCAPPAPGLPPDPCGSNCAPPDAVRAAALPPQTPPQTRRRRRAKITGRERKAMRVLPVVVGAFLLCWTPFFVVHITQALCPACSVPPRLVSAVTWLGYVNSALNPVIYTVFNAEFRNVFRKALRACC", "details": "Compound concentration 10.0 uM"}, "[29]": {"target": "GABA-A receptor; anion channel (Rattus norvegicus) (UniProt O09028+P15431+P18506+P18508+P19969+P20236+P23574+P23576+P28471+P28473+P30191+P62813+P63079+P63138+Q91ZM7+Q9ES14)", "details": "Compound concentration 10.0 uM"}},
  "note": "The source made the active and inactive calls. The calls are words filed in the database; no cut-off is given here.",
  "data": [
    {"smiles": "Cc1noc([C@H]2C[C@@H](c3ccc(C(F)(F)F)cc3)CN(C(=O)N3CCS(=O)(=O)C3)C2)n1", "note": "[BAY-448]", "values": [
      {"measurement": "IC50", "setting": "[1]", "result": "> 10 µM (not active)"},
      {"measurement": "% Inhibition of Control Agonist Response (Mean n=2)", "setting": "[2]", "result": 10.2, "unit": "%"},
      {"measurement": "% of Control Agonist Response (Mean n=2)", "setting": "[2]", "result": 2.3, "unit": "%"},
      {"measurement": "% Inhibition of Control Agonist Response (Mean n=2)", "setting": "[3]", "result": 14.3, "unit": "%"},
      {"measurement": "% of Control Agonist Response (Mean n=2)", "setting": "[3]", "result": -1.8, "unit": "%"},
      {"measurement": "residual activity", "setting": "[4]", "result": 91, "unit": "%"},
      {"measurement": "residual activity", "setting": "[5]", "result": 96, "unit": "%"},
      {"measurement": "residual activity", "setting": "[6]", "result": 100, "unit": "%"},
      {"measurement": "residual activity", "setting": "[7]", "result": 100, "unit": "%"},
      {"measurement": "residual activity", "setting": "[8]", "result": 100, "unit": "%"},
      {"measurement": "residual activity", "setting": "[9]", "result": 86, "unit": "%"},
      {"measurement": "residual activity", "setting": "[10]", "result": 83, "unit": "%"},
      {"measurement": "residual activity", "setting": "[11]", "result": 100, "unit": "%"},
      {"measurement": "residual activity", "setting": "[12]", "result": 100, "unit": "%"},
      {"measurement": "residual activity", "setting": "[13]", "result": 85, "unit": "%"},
      {"measurement": "residual activity", "setting": "[14]", "result": 79, "unit": "%"},
      {"measurement": "residual activity", "setting": "[15]", "result": 100, "unit": "%"},
      {"measurement": "residual activity", "setting": "[16]", "result": 87, "unit": "%"},
      {"measurement": "residual activity", "setting": "[17]", "result": 100, "unit": "%"},
      {"measurement": "residual activity", "setting": "[18]", "result": 97, "unit": "%"},
      {"measurement": "residual activity", "setting": "[19]", "result": 100, "unit": "%"},
      {"measurement": "residual activity", "setting": "[20]", "result": 100, "unit": "%"},
      {"measurement": "residual activity", "setting": "[21]", "result": 78, "unit": "%"},
      {"measurement": "residual activity", "setting": "[22]", "result": 100, "unit": "%"},
      {"measurement": "residual activity", "setting": "[23]", "result": 85, "unit": "%"},
      {"measurement": "residual activity", "setting": "[24]", "result": 87, "unit": "%"},
      {"measurement": "residual activity", "setting": "[25]", "result": 100, "unit": "%"},
      {"measurement": "residual activity", "setting": "[26]", "result": 100, "unit": "%"},
      {"measurement": "inhibition", "setting": "[27]", "result": 10.6, "unit": "%"},
      {"measurement": "inhibition", "setting": "[28]", "result": 6.3, "unit": "%"},
      {"measurement": "inhibition", "setting": "[29]", "result": 28.4, "unit": "%"}
    ]},
    {"smiles": "O=C(N1CCS(=O)(=O)CC1)N1C[C@H](c2ccc(OC(F)(F)F)cc2)C[C@H](c2nc(C3CC3)no2)C1", "note": "[BAY-386]", "values": [
      {"measurement": "IC50", "setting": "[1]", "result": "0.01 µM (active)"},
      {"measurement": "% Inhibition of Control Agonist Response (Mean n=2)", "setting": "[2]", "result": -6.9, "unit": "%"},
      {"measurement": "% of Control Agonist Response (Mean n=2)", "setting": "[2]", "result": -1.7, "unit": "%"},
      {"measurement": "% Inhibition of Control Agonist Response (Mean n=2)", "setting": "[3]", "result": -8.1, "unit": "%"},
      {"measurement": "% of Control Agonist Response (Mean n=2)", "setting": "[3]", "result": -1.2, "unit": "%"},
      {"measurement": "residual activity", "setting": "[4]", "result": 100, "unit": "%"},
      {"measurement": "residual activity", "setting": "[5]", "result": 100, "unit": "%"},
      {"measurement": "residual activity", "setting": "[6]", "result": 100, "unit": "%"},
      {"measurement": "residual activity", "setting": "[7]", "result": 100, "unit": "%"},
      {"measurement": "residual activity", "setting": "[8]", "result": 100, "unit": "%"},
      {"measurement": "residual activity", "setting": "[9]", "result": 100, "unit": "%"},
      {"measurement": "residual activity", "setting": "[10]", "result": 77, "unit": "%"},
      {"measurement": "residual activity", "setting": "[11]", "result": 96, "unit": "%"},
      {"measurement": "residual activity", "setting": "[12]", "result": 100, "unit": "%"},
      {"measurement": "residual activity", "setting": "[13]", "result": 94, "unit": "%"},
      {"measurement": "residual activity", "setting": "[14]", "result": 100, "unit": "%"},
      {"measurement": "residual activity", "setting": "[15]", "result": 100, "unit": "%"},
      {"measurement": "residual activity", "setting": "[16]", "result": 100, "unit": "%"},
      {"measurement": "residual activity", "setting": "[17]", "result": 100, "unit": "%"},
      {"measurement": "residual activity", "setting": "[18]", "result": 0, "unit": "%"},
      {"measurement": "residual activity", "setting": "[19]", "result": 100, "unit": "%"},
      {"measurement": "residual activity", "setting": "[20]", "result": 100, "unit": "%"},
      {"measurement": "residual activity", "setting": "[21]", "result": 77, "unit": "%"},
      {"measurement": "residual activity", "setting": "[22]", "result": 100, "unit": "%"},
      {"measurement": "residual activity", "setting": "[23]", "result": 100, "unit": "%"},
      {"measurement": "residual activity", "setting": "[24]", "result": 100, "unit": "%"},
      {"measurement": "residual activity", "setting": "[25]", "result": 91, "unit": "%"},
      {"measurement": "residual activity", "setting": "[26]", "result": 100, "unit": "%"},
      {"measurement": "inhibition", "setting": "[27]", "result": 3.2, "unit": "%"},
      {"measurement": "inhibition", "setting": "[28]", "result": 5.24, "unit": "%"},
      {"measurement": "inhibition", "setting": "[29]", "result": -2.64, "unit": "%"}
    ]}
  ]
}
